Data reported in patent publication US12029755B2, “Carbon monoxide-based therapies and implantable devices for the treatment of vascular disease” (THE REGENTS OF THE UNIVERSITY OF MICHIGAN, priority 2017, dated 2024).

What was measured:
[1] = system: heme oxygenase-1 expression; assay: HO-1 expression in sham-operated WT IVC by quantitative RT-PCR and immunoblotting; assay type: in vivo, mouse; details: CO exposure (inhaled CO or CORM), sham-operated WT IVC compared with normoxic controls
Experimental: Also, it was determined that CO exposure (inhaled CO or CORM) induces heme oxygenase-1 expression in sham-operated WT IVC compared with normoxic controls by quantitative RT-PCR and immunoblotting. Therefore, inhaled CO can trigger a venous anti-inflammatory and anti-thrombotic program. Also, whether CO or CORM treatment alone is sufficient to rescue HO-1^−/− mice from exaggerated early venous thrombosis was assessed. HO-1^−/− mice undergo venous stasis or stenosis thrombus induction, followed by CORM or inhaled CO treatment. Thrombus size was measured at the time of expected peak thrombus burden.

humans = details: dose up to 500 ppm, clinical trials; cited from earlier work
WT mice = assay: IVC ligation (stasis) model of venous thrombosis with inhaled CO exposure; assay type: in vivo, mouse; details: for Venous stasis thrombus burden / Vessel wall leukocyte infiltration: 7 d inhaled CO, 250 ppm for 1 hour twice daily, after IVC ligation, vs normoxia-treated controls
Experimental: Carbon monoxide was focused on for these studies because it is an end product from heme degradation by HO-1.
The effect of CO on large vein thrombogenesis was determined. WT mice undergo venous thrombus induction by stasis or stenosis, followed by exposure to inhaled CO (250 ppm) for one hour twice daily. […] Thrombus burden was assessed as in SA1 indirectly (ultrasound, FIG. 6) and directly (thrombus weight/length), at pre-determined time points after surgery (1 d, 2 d, 7 d, 10 d, 21 d).
The mouse makes an excellent animal model of stasis-induced venous thrombosis. Mice, weighing 20 to 30 g, were anesthetized with an inhalation mixture of isoflurane gas (1.5% to 2%) and oxygen (100%), placed in dorsal recumbency and aseptically prepped for surgery. A midline laparotomy was made, the small bowel was exteriorized from the body cavity and moved slightly to the left of the animal, and then the IVC was directly approached by careful blunt dissection. Blunt dissection was facilitated using a sterile applicator swab and extra delicate half curved tissue forceps. Care was taken in handling mouse tissue due to its fragility. Periodically, the exteriorized bowel was moistened with sterile saline to prevent its desiccation. For consistent thrombus formation (90 to 95%), ligation of the IVC with a 7-0 prolene below the renal veins, ligation of an occasional side venous branch and cauterization of a deep posterior branch was performed if indicated to account for normal variation in anatomy. The laparotomy incision was closed in a 2-layer fashion using a 5-0 nonreactive suture material and VetBond glue (3M). Harvest of the IVC was performed at pre-determined time points.
Inhaled Carbon monoxide exposure: Mice were randomly assigned to the normoxia or carbon monoxide exposure group prior to IVC ligation or stenosis surgery. The carbon monoxide group was exposed to 250 ppm CO at a flow rate of 10 L/min for 1 h twice daily. One cohort of mice received “pre-conditioning” with CO exposure 1 day prior to surgery. To achieve 75% O2, 100% O2 is delivered at a flow rate of 0.5 l/min into a custom-made 1.5-m^3 plastic chamber. Oxygen concentrations were monitored continuously with an oxygen analyzer (Neutronics, Exton, PA), gas lines were filtered with activated charcoal to remove excess ammonia, and calcium chloride used to maintain CO2 levels below 0.05%. A CO analyzer (Ntron model 1100; Neutronics, Exton, PA) were used to monitor CO levels continuously in the chamber.

C57B/6J mice = assay: IVC flow-restriction (stenosis) model of venous thrombosis; assay type: in vivo, mouse
Experimental: To determine whether carbon monoxide-releasing molecules can be used as a therapeutic in prevention of flow-restriction mediated venous thrombosis (a model of venous thrombosis that mimics human venous clot, unlike IVC ligation), mice were injected with CORM-3 (Sigma SML0496, 10 mg/kg intraperitoneal injection) and subjected to IVC flow-restriction to induce thrombosis. Remarkably, CORM-3 treated mice developed no venous thrombus (0%, n=5) compared with controls (48%, n=21. P=0.001).
“Flow restriction” (Stenosis) thrombosis model: Partial IVC stenosis Model of Venous Thrombosis (FIG. 5) This model is a “flow-restriction” (or “stenosis) model in which the lumen is reduced by ˜90%. This model invokes disturbed flow at the stenosis site as a model for turbulent flow in venous valve pockets, where thrombi frequently develop. It also has applications to human venous “impingement” conditions, such as May Thurner syndrome. Mice, weighing 20 to 30 g, were anesthetized using an inhalation mixture of isoflurane gas (1.5%-2%) and oxygen (100%), placed in dorsal recumbence, and the IVC was approached directly via a midline laparotomy utilizing aseptic technique. A 7-0 Prolene suture (Ethicon, Inc. Somerville, NJ) was fastened around the IVC over a blunted 30-gauge needle (which serves as a spacer). […] Mice were humanely euthanized and thrombus formation assessed 2-7 days after laparotomy.

## [C-]#[O+] [CO, carbon monoxide]
[1]
  Heme oxygenase-1 expression in IVC: induces
humans
  Safety of inhaled CO dose: safe
WT mice
  Venous stasis thrombus burden: reduced
  Vessel wall leukocyte infiltration: reduced
WT mice; listed as carbon monoxide
  Venous stasis thrombus burden: profound reduction
  Vessel wall leukocyte infiltration: profound reduction
WT mice; WT mice, thrombus induction by stasis or stenosis, inhaled CO 250 ppm one hour twice daily
  Thrombus size at 7 days: robust reduction

## NCC(=O)O.[CH+]=O.[CH+]=O.[CH+]=O.[Cl][Ru] [CORM-3, tricarbonylchloro(glycinato)ruthenium (II)]
C57B/6J mice; C57B/6J mice treated with CORM-3, VT induction by IVC flow-restriction
  Protection from venous thrombus compared with controls: protected from venous thrombus
C57B/6J mice; CORM-3 10 mg/kg intraperitoneal injection, IVC flow-restriction, n=5, controls 48% (n=21)
  Frequency of clot (venous thrombus): 0%
